Assay results taken from paper PMC11587505, “Identification and In Vitro and In Vivo Characterization of KAC-50.1 as a Potential α-Synuclein PET Radioligand” (ACS Chemical Neuroscience, 2024).

Molecular target: T1, α-synuclein (recombinant fibrils) (Homo sapiens, UniProt P37840)
T1 construct: gene SNCA; recombinant human α-syn fibrils (pET-3a construct)
Assay: radioligand saturation binding (filtration) on recombinant fibrils

Kd: 35 nM
SMILES: COc1ccc(/C=C/c2cn(-c3ccccc3)nn2)cc1 [50.1, KAC-50.1]
